Assay results taken from US7163946B2 (Ligand Pharmaceuticals Incorporated, priority 2002, dated 2007).

Key:
[1] = biological target: T1, hPR (Homo sapiens, UniProt P06401); assay: T47D alkaline phosphatase assay, antagonist mode; assay type: cell-based; conditions: T47D human breast cancer cells; for Emax: read-out: hPR Antagonists T47D Cells Eff. (%); for IC50: read-out: hPR Antagonists T47D Cells IC50
T1 sequence (P06401 679-933 limits assumed): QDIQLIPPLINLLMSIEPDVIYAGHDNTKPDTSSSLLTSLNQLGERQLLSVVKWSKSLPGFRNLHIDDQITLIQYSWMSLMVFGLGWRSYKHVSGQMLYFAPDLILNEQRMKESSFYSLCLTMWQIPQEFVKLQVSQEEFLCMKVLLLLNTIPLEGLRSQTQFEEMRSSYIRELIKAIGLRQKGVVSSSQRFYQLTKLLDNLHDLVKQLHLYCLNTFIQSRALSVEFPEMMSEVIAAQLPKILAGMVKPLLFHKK
Excerpt: The potential tissue-selectivities of the selected analogues were examined by using the T47D alkaline phosphatase assay that was developed from human breast cancer cells with endogenous PRs.

[2] = biological target: T2, human estrogen receptor (hER) (Homo sapiens, UniProt P03372); assay: hER cotransfection assay (potency ratio to hPR); assay type: cell-based; conditions: receptor-selectivity potency ratio, cotransfection assays
T2 sequence (P03372 1-595): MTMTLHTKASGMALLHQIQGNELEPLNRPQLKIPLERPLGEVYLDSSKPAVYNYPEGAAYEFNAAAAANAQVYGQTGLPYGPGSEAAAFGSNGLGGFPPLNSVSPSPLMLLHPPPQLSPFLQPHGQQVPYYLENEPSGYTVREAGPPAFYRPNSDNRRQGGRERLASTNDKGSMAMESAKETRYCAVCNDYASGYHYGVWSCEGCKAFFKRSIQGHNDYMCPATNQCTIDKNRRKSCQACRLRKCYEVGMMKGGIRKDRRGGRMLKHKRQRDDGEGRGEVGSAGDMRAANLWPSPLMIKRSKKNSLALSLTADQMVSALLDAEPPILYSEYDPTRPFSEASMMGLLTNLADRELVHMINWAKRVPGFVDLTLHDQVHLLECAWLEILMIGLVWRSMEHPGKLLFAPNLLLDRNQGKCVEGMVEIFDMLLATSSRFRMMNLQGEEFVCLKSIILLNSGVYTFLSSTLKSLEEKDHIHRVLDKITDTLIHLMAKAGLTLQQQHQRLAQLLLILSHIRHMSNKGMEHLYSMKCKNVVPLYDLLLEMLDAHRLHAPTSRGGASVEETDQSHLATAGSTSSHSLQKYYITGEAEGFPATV
Description: (§1) Antagonist efficacy was determined as a function (%) of maximal inhibition of a reference agonist at EC50 concentration. All the cotransfection experiments were carried out in 96-well plates by automation (Beckman Biomomek automated workstation).

[3] = biological target: T3, hGR (Homo sapiens, UniProt P04150); assay: hGR cotransfection assay (potency ratio to hPR); assay type: cell-based; conditions: receptor-selectivity potency ratio, cotransfection assays
T3 sequence (P04150 1-777): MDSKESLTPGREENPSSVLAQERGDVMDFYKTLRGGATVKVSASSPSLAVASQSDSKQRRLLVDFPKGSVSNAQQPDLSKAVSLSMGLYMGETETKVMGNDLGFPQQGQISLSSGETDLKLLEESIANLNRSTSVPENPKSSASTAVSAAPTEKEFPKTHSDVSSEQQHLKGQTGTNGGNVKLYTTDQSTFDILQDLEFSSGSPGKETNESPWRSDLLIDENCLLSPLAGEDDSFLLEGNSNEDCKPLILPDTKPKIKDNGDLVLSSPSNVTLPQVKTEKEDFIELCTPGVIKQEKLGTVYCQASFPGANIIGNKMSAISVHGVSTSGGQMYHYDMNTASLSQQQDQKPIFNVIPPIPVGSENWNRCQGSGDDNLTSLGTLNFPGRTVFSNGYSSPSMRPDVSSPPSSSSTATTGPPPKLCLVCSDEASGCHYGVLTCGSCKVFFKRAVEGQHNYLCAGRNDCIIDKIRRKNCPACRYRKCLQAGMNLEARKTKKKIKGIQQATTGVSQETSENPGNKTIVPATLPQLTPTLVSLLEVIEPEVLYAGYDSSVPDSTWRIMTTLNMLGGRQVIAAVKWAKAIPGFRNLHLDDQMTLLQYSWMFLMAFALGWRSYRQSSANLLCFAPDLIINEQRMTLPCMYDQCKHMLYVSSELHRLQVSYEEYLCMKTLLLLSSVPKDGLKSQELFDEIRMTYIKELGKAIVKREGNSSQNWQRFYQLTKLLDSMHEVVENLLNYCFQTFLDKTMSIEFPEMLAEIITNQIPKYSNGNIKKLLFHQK
Description: as §1

[4] = biological target: T4, hPR-A (Homo sapiens, UniProt P06401); assay: Receptor competitive binding assay; conditions: read-out: PR binding Ki
T4 sequence (P06401 1-769 isoform P06401-2): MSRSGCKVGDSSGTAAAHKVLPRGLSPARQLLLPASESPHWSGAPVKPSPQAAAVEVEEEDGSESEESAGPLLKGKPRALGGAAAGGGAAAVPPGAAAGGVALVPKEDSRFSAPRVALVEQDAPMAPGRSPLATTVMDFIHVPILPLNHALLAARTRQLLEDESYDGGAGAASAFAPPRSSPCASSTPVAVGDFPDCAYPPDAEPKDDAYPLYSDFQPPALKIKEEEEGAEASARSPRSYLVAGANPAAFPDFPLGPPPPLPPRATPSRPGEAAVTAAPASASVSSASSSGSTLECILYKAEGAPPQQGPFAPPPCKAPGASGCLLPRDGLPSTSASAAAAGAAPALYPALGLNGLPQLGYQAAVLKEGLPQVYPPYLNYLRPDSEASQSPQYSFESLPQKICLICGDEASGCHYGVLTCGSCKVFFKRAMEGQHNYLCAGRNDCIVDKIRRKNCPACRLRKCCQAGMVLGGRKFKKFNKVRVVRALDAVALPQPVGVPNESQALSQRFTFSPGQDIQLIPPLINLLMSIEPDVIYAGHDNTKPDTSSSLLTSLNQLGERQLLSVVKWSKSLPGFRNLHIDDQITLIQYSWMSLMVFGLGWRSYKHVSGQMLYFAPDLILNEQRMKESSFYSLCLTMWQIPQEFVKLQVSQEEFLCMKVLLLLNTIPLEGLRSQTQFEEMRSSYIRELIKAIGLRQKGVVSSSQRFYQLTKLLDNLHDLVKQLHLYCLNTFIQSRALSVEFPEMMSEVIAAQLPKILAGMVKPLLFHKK

SMILES	Emax [1] [%]	IC50 [1] [nM]	hER EC50 or IC50/hPR EC50 [2]	hGR EC50 or IC50/hPR EC50 [3]	Ki [4] [nM]
CC1=CC(C)(C)Nc2ccc3c(c21)C(c1ccccc1)Oc1c(F)cc(F)cc1-3 (racemic) [Compound 33, (±)-7,9-difluoro-5-phenyl-1,2-dihydro-2,2,4-trimethyl-5H-chromeno[3,4-f]quinoline]	< 20	> 10000	>1000	10	2.7
CC1=CC(C)(C)Nc2ccc3c(c21)C(c1cccc(C)c1)Oc1c(F)cc(F)cc1-3 (racemic) [Compound 34, (±)-7,9-difluoro-5-(3-methylphenyl)-1,2-dihydro-2,2,4-trimethyl-5H-chromeno[3,4-f]quinoline]	47	565	>1000	>1000	2.5
CC1=CC(C)(C)Nc2ccc3c(c21)C(c1ccc(Cl)c(C)c1)Oc1c(F)cc(F)cc1-3 (racemic) [Compound 37, (±)-7,9-difluoro-5-(4-chloro-3-methylphenyl)-1,2-dihydro-2,2,4-trimethyl-5H-chromeno[3,4-f]quinoline]	56	150	>1000	54	2.2
CC1=CC(C)(C)Nc2ccc3c(c21)C(c1cccc(Cl)c1)Oc1c(F)cc(F)cc1-3 (racemic) [Compound 41, (±)-7,9-difluoro-5-(3-chlorophenyl)-1,2-dihydro-2,2,4-trimethyl-5H-chromeno[3,4-f]quinoline]	50	135	>1000	105	2.8
CC1=CC(C)(C)Nc2ccc3c(c21)C(c1cc2ccccc2s1)Oc1c(F)cc(F)cc1-3 (racemic) [Compound 63, (±)-7,9-difluoro-5-(benzo[b]thien-2-yl)-1,2-dihydro-2,2,4-trimethyl-5H-chromeno[3,4-f]quinoline]	49	490	685	8.8	6.5
CC#CC1Oc2c(F)cc(F)cc2-c2ccc3c(c21)C(C)=CC(C)(C)N3 (racemic) [Compound 74, (±)-7,9-difluoro-5-(1-propynyl)-1,2-dihydro-2,2,4-trimethyl-5H-chromeno[3,4-f]quinoline]	40	53	>1000	>1000	3.5
CC1=CC(C)(C)Nc2ccc3c(c21)/C(=C/c1ccccc1)Oc1c(F)cc(F)cc1-3 [Compound 10, 7,9-difluoro-5(Z)-benzylidene-1,2-dihydro-2,2,4-trimethyl-5H-chromeno[3,4-f]quinoline]	49	97	>1000	290	6.8
CC1=CC(C)(C)Nc2ccc3c(c21)/C(=C/c1ccncc1)Oc1c(F)cc(F)cc1-3 [Compound 14, 7,9-difluoro-5(Z)-(4-picolylidene)-1,2-dihydro-2,2,4-trimethyl-5H-chromeno[3,4-f]quinoline]	44	116	>1000	365	6
CC1=CC(C)(C)Nc2ccc3c(c21)/C(=C/c1cccc(F)c1)Oc1c(F)cc(F)cc1-3 [Compound 15, 7,9-difluoro-5(Z)-(3-fluorobenzylidene)-1,2-dihydro-2,2,4-trimethyl-5H-chromeno[3,4-f]quinoline]	52	711	>1000	30	9.7
CC1=CC(C)(C)Nc2ccc3c(c21)/C(=C/c1cc(F)ccc1F)Oc1c(F)cc(F)cc1-3 [Compound 17, 7,9-difluoro-5(Z)-(2,5-difluorobenzylidene)-1,2-dihydro-2,2,4-trimethyl-5H-chromeno[3,4-f]quinoline]	42	389	>1000	66	9.5
COc1ccccc1/C=C1\Oc2c(F)cc(F)cc2-c2ccc3c(c21)C(C)=CC(C)(C)N3 [Compound 18, 7,9-difluoro-5(Z)-(2-methoxybenzylidene)-1,2-dihydro-2,2,4-trimethyl-5H-chromeno[3,4-f]quinoline]	58	55	>1000	77	3.9
CC1=CC(C)(C)Nc2ccc3c(c21)/C(=C/c1cc(F)ccc1C)Oc1c(F)cc(F)cc1-3 [Compound 19, 7,9-difluoro-5(Z)-(2-methyl-5-fluorobenzylidene)-1,2-dihydro-2,2,4-trimethyl-5H-chromeno[3,4-f]quinoline]	35	360	>1000	432	8.5
CC1=CC(C)(C)Nc2ccc3c(c21)/C(=C/c1ccncc1C)Oc1c(F)cc(F)cc1-3 [Compound 20, 7,9-difluoro-5(Z)-(3-methyl-4-picolylidene)-1,2-dihydro-2,2,4-trimethyl-5H-chromeno[3,4-f]quinoline]	59	170	>1000	27	2.9
COc1ccc(F)cc1/C=C1\Oc2c(F)cc(F)cc2-c2ccc3c(c21)C(C)=CC(C)(C)N3 [Compound 26, 7,9-difluoro-5(Z)-(2-methoxy-5-fluorobenzylidene)-1,2-dihydro-2,2,4-trimethyl-5H-chromeno[3,4-f]quinoline]	46	610	>1000	342	9
CC1=CC(C)(C)Nc2ccc3c(c21)/C(=C/Br)Oc1c(F)cc(F)cc1-3 [Compound 29, 7,9-difluoro-5(Z)-bromomethylidene-1,2-dihydro-2,2,4-trimethyl-5H-chromeno[3,4-f]quinoline]	40	170	>1000	83	7
